# Test results: patent publication US5866392A, “Cellobiose oxidase, and enzymatic agent and a process for treating paper pulp” (priority 1992, dated 1999)
# Read-outs that look alike come from different tables or passages of the source.
# What was measured:
# [1] = biological target: T1, Humicola insolens cellobiose oxidase (CBO, 92 kDa, pI 4.0) (Mycothermus thermophilus, UniProt Q9P8H5); conditions: for Km: read-out: Km (electron donor), pH 7.5; for kcat (electron donor): sugar + 90 μM DCPIP, mol oxidized cellobiose/s/mol enzyme
# T1 sequence (Q9P8H5 24-785): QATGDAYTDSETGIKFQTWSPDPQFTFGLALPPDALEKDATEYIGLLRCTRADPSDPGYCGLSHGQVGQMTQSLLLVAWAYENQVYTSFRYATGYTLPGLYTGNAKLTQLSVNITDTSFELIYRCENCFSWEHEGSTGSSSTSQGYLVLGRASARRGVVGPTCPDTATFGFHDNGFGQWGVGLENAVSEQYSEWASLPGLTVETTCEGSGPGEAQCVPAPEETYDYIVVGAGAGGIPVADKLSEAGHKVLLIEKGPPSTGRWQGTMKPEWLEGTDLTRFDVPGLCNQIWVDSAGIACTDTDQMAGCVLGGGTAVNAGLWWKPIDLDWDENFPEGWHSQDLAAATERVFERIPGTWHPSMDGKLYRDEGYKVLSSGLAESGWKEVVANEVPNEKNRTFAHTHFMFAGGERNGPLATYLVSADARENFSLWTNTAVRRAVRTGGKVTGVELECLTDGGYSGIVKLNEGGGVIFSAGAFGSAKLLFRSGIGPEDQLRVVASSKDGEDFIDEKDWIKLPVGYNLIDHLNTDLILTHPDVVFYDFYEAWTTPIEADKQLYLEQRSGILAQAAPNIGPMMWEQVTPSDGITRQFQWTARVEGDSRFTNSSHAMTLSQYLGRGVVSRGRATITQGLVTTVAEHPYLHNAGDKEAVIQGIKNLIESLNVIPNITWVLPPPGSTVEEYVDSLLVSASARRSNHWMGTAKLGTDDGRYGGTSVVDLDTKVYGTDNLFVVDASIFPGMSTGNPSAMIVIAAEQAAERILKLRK
# Procedure: The measurements were performed in 0.1M sodium phosphate buffer at pH 7.5 at 40° C. 450 μl of a mixture of 100 μM of 2,6-Dichlorophenol-indophenol (DCPIP, Merck), 250 μM of cellobiose (Sigma) were mixed with 50 μl enzyme. Units of activity equals μmol cellobiose oxidized (DCPIP reduced) per min.
# All measurements were performed in 0.1M sodium phosphate buffer, pH 7.5, at 40° C. […] The reactions were monitored for 400 s as changes in absorbance at the appropirate wavelength (see above). […] The catalytic constants (kcat) were expressed as mol of oxidized cellobiose/s/mol of enzyme. […] The kinetic constants were determined using Lineweaver-Burke plots and were the result of dual determinations.
# CBH II (cellulase) = biological target: T2, CBH II (cellulase) (Humicola insolens, UniProt Q9C1S9); assay: Coupled cellobiose oxidase/DCPIP assay for cellulases; assay type: biochemical; conditions: for Ki: coupled CBO/DCPIP assay, read-out: KL (inhibition constant)
# T2 sequence (Q9C1S9 17-476): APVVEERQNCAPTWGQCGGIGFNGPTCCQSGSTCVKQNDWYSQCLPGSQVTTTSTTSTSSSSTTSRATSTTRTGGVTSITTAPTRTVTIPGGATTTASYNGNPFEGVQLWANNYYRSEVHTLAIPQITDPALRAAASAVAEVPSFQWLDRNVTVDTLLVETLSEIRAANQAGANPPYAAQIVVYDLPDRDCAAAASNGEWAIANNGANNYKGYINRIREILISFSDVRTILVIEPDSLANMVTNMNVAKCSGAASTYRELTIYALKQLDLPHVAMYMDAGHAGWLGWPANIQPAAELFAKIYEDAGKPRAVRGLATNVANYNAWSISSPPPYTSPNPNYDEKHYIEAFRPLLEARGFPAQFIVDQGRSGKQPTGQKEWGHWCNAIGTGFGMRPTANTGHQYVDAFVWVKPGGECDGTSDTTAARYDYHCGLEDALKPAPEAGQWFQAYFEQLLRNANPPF
# Description: The ability of the cellobiose oxidase to oxidize cellodextrins by means of an electron acceptor was utilized in an assay for cellulases. […] With this assay the kinetic constants for reduced cellodextrins of 5 different cellulases have been determined (table 2). […] The enzymes show very different substrate specificity, some of them requiring quite long substrates making it impossible to use the umbelliferyl cellobiosides and lactosides available for steady state kinetic. […] The inhibition constants were determined for two cellulases using the developed assay.
# EG C (cellulase) = assay: as above; assay type: biochemical; conditions: reduced cellodextrin substrate
# Description: (§1) The ability of the cellobiose oxidase to oxidize cellodextrins by means of an electron acceptor was utilized in an assay for cellulases. […] With this assay the kinetic constants for reduced cellodextrins of 5 different cellulases have been determined (table 2). […] The enzymes show very different substrate specificity, some of them requiring quite long substrates making it impossible to use the umbelliferyl cellobiosides and lactosides available for steady state kinetic.
# [2] = tested on: Endo (cellulase, first line of the table); assay: as above; assay type: biochemical; conditions: reduced cellodextrin substrate
# Description: as §1
# EG A (cellulase) = assay: as above; assay type: biochemical; conditions: reduced cellodextrin substrate
# Description: as §1
# Endo B (cellulase) = assay: as above; assay type: biochemical; conditions: reduced cellodextrin substrate
# Description: as §1
# Endo A (cellulase) = assay: as above; assay type: biochemical; conditions: coupled CBO/DCPIP assay
# Description: The ability of the cellobiose oxidase to oxidize cellodextrins by means of an electron acceptor was utilized in an assay for cellulases. By using a substrate without a reducing end, such as a reduced cellodextrin, the reducing ends formed by the hydrolysis by the cellulase will be oxidized by the CBO. Simultaneously the coloured electron acceptor, dichlorophenolindophenol (DCPIP), is reduced by cellobiose oxidase to a colourless compound making it possible to follow the reaction spectrophotometrically at 600 nm DCPIP was chosen as electron acceptor because of its high extinction coefficient.
# The inhibitors methyl 4-thiocellotrioside, methyl 4-thiocellotetraoside and methyl 4-thiocellopentaoside were synthesized at the laboratory in Grenoble^5. The inhibition constants were determined for two cellulases using the developed assay.
# [3] = 0.1M sodium phosphate buffer, pH 7.5, 40° C.
# [4] = read-out: KL (inhibition constant)
# [5] = read-out: KLS (inhibition constant)
molecule,measurement,setting,value
"CC(C)(C)C1=CC(=O)C(=O)C(C(C)(C)C)=C1 [Benzoquinone, 3,5-di-tert-butyl-1,2-benzoquinone]",kcat (electron acceptor),"[1]; electron acceptor + 225 μM cellobiose, 0.1M sodium phosphate buffer, pH 7.5, 40° C.",15 s⁻¹
OC[C@H]1O[C@@H](O[C@H]2[C@H](O)[C@@H](O)[C@H](O[C@H]3[C@H](O)[C@@H](O)[C@H](O[C@H]4[C@H](O)[C@@H](O)[C@H](O[C@H]5[C@H](O)[C@@H](O)C(O)O[C@@H]5CO)O[C@@H]4CO)O[C@@H]3CO)O[C@@H]2CO)[C@H](O)[C@@H](O)[C@@H]1O (stereo partly drawn) [Cellopentaose],Km,[1],17 µM
same,kcat (electron donor),[1]; [3],8.3 s⁻¹
OC[C@H]1O[C@@H](O[C@H]2[C@H](O)[C@@H](O)[C@H](O[C@H]3[C@H](O)[C@@H](O)[C@H](O[C@H]4[C@H](O)[C@@H](O)C(O)O[C@@H]4CO)O[C@@H]3CO)O[C@@H]2CO)[C@H](O)[C@@H](O)[C@@H]1O (stereo partly drawn) [Cellotetraose],kcat (electron donor),[1]; [3],8.5 s⁻¹
OC[C@H]1O[C@@H](O[C@H]2[C@H](O)[C@@H](O)[C@H](O[C@H]3[C@H](O)[C@@H](O)C(O)O[C@@H]3CO)O[C@@H]2CO)[C@H](O)[C@@H](O)[C@@H]1O (stereo partly drawn) [Cellotriose],kcat (electron donor),[1]; [3],8.5 s⁻¹
OC[C@H]1OC(O)[C@H](O)[C@@H](O)[C@@H]1O (stereo partly drawn) [Glucose],kcat (electron donor),[1]; [3],0 s⁻¹
"CC(=O)N[C@H]1[C@H](O[C@H]2[C@H](O)[C@@H](NC(C)=O)C(O)O[C@@H]2CO)O[C@H](CO)[C@@H](O)[C@@H]1O (stereo partly drawn) [N,N-Diacetylchitobiose]",kcat (electron donor),[1]; [3],0 s⁻¹
CC(=O)N[C@H]1C(O)O[C@H](CO)[C@@H](O[C@@H]2O[C@H](CO)[C@H](O)[C@H](O)[C@H]2O)[C@@H]1O (stereo partly drawn) [N-Acetyllactosamine],kcat (electron donor),[1]; [3],0 s⁻¹
OC[C@@H](O)[C@@H](O[C@@H]1O[C@H](CO)[C@@H](O[C@@H]2O[C@H](CO)[C@@H](O)[C@H](O)[C@H]2O)[C@H](O)[C@H]1O)[C@H](O)[C@@H](O)CO [Red. DP3],kcat,CBH II (cellulase); reduced cellodextrin substrate,0 s⁻¹
same,kcat,EG C (cellulase),0 s⁻¹
same,Km,[2],500 µM
same,kcat,[2],0.24 s⁻¹
same,kcat,EG A (cellulase),0 s⁻¹
same,kcat,Endo B (cellulase),0 s⁻¹
OC[C@@H](O)[C@@H](O[C@@H]1O[C@H](CO)[C@@H](O[C@@H]2O[C@H](CO)[C@@H](O[C@@H]3O[C@H](CO)[C@@H](O)[C@H](O)[C@H]3O)[C@H](O)[C@H]2O)[C@H](O)[C@H]1O)[C@H](O)[C@@H](O)CO [Red. DP4],Km,EG C (cellulase),1600 µM
same,kcat,EG C (cellulase),0.43 s⁻¹
same,Km,[2],26 µM
same,kcat,[2],29 s⁻¹
same,kcat,EG A (cellulase),0 s⁻¹
same,Km,Endo B (cellulase),1500 µM
same,kcat,Endo B (cellulase),0.84 s⁻¹
OC[C@@H](O)[C@@H](O[C@@H]1O[C@H](CO)[C@@H](O[C@@H]2O[C@H](CO)[C@@H](O[C@@H]3O[C@H](CO)[C@@H](O[C@@H]4O[C@H](CO)[C@@H](O)[C@H](O)[C@H]4O)[C@H](O)[C@H]3O)[C@H](O)[C@H]2O)[C@H](O)[C@H]1O)[C@H](O)[C@@H](O)CO [Red. DP5],Km,EG C (cellulase),68 µM
same,kcat,EG C (cellulase),13 s⁻¹
same,Km,[2],14 µM
same,kcat,[2],40 s⁻¹
same,Km,EG A (cellulase),460 µM
same,kcat,EG A (cellulase),0.00 s⁻¹
same,Km,Endo B (cellulase),150 µM
same,kcat,Endo B (cellulase),0.86 s⁻¹
OC[C@@H](O)[C@@H](O[C@@H]1O[C@H](CO)[C@@H](O[C@@H]2O[C@H](CO)[C@@H](O[C@@H]3O[C@H](CO)[C@@H](O[C@@H]4O[C@H](CO)[C@@H](O[C@@H]5O[C@H](CO)[C@@H](O)[C@H](O)[C@H]5O)[C@H](O)[C@H]4O)[C@H](O)[C@H]3O)[C@H](O)[C@H]2O)[C@H](O)[C@H]1O)[C@H](O)[C@@H](O)CO [Red. DP6],Km,EG C (cellulase),71 µM
same,kcat,EG C (cellulase),11 s⁻¹
same,Km,EG A (cellulase),54 µM
same,kcat,EG A (cellulase),0.15 s⁻¹
same,Km,Endo B (cellulase),52 µM
same,kcat,Endo B (cellulase),14 s⁻¹
OC1OC[C@@H](O[C@@H]2OC[C@@H](O)[C@H](O)[C@H]2O)[C@H](O)[C@H]1O (stereo partly drawn) [Xylobiose],Km,[1],7100 µM
same,kcat (electron donor),[1]; [3],2.15 s⁻¹
methyl 4-thiocellopentaoside [S-DP5],Ki,Endo A (cellulase); [4],35 µM
same,Ki,CBH II (cellulase),15 µM
methyl 4-thiocellotetraoside [S-DP4],Ki,Endo A (cellulase); [4],75 µM
same,Ki,Endo A (cellulase); [5],1000 µM
same,Ki,CBH II (cellulase),270 µM
methyl 4-thiocellotrioside [S-DP3],Ki,Endo A (cellulase); [4],300 µM
same,Ki,Endo A (cellulase); [5],2000 µM
same,Ki,CBH II (cellulase),1400 µM
